Measured values: patent US20260184715A1, “NOVEL PYRROLO[1,2-d][1,2,4] TRIAZINONE DERIVATIVES AS NEGATIVE ALLOSTERIC MODULATORS OF MGLU7 RECEPTORS” (Neurosterix Pharma Sarl., priority 2022, published 2026)

Target: T1, human metabotropic glutamate 7 receptor (hmGlu7) (Homo sapiens, UniProt Q14831)
T1 construct: expressed in transfected cells
Test: mGlu7 assay on HEK-expressing human mGlu7: fluorescent cell based-Ca2+ mobilization assay (FLIPR), inhibition of EC80 L-AP4 response
Settings: HEK-293 cells expressing hmGlu7, EC80 L-AP4; mean of at least three independent experiments in duplicate; read-out: Ca^2+ Flux (mean IC50)
Text: mGlu7 Assay on HEK-Expressing Human mGLU7
The cDNA encoding the human metabotropic glutamate 7 receptor (hmGlu7), (accession number NM_181874.2, NCBI Nucleotide database browser), was subcloned into an expression vector containing also the hygromycin resistance gene. In parallel, the cDNA encoding a G protein allowing redirection of the activation signal to intracellular calcium flux was subcloned into a different expression vector containing also the Puromycin resistance gene. Transfection of both these vectors into HEK293 cells with PolyFect reagent (Qiagen) according to supplier's protocol, and hygromycin and puromycin treatment allowed selection of antibiotic resistant cells which had integrated stably one or more copies of the plasmids. Positive cellular clones expressing hmGlu7 were identified in a functional assay measuring changes in calcium fluxes in response to glutamate and L-AP4 or known mGlu7 orthosteric antagonists.
HEK-293 cells expressing hmGlu7 were maintained in media containing DMEM, Fetal Bovine Serum (10%), GlutaMAX™ (2 mM), penicillin (100 units/mL), streptomycin (100 μg/mL), geneticin (100 μg/mL) and hygromycin-B (40 μg/mL) and puromycin (1 μg/mL) at 37° C. with 5% CO2 in a humidified atmosphere.
Human mGlu7 HEK-293 cells were plated out 24 hours prior to a fluorescent cell-based calcium mobilization assay using FLIPR^384 assay (Molecular Device, Sunnyvale, CA, USA) in black-walled, clear-bottomed, poly-L-ornithine-coated 384-well plates at a density of 25,000 cells/well in a glutamine/glutamate free DMEM medium containing fetal bovine serum (10%), penicillin (100 units/mL), streptomycin (100 μg/mL) and doxycyline (1 μg/ml) at 37° C. with 5% CO2 in a humidified atmosphere.
On the day of the assay, the medium was aspirated and the cells were loaded with a 3 μM solution of Fluo4-AM (LuBioScience, Lucerne, Switzerland) in 0.03% pluronic acid. After 1 hour at 37° C./5% CO2, the non incorporated dye was removed by washing cell plate with the assay buffer. All assays were performed in a pH 7.4 buffered-Solution containing 20 mM HEPES, 143 mM NaCl, 6 mM KCl, 1 mM MgSO4, 1 mM CaCl2, 0.125 mM sulfinpyrazone and 0.1% glucose.
After 10 s of basal fluorescence recording, various concentrations of the compounds of the invention were added to the cells. Changes in fluorescence levels were first monitored for 180 s in order to detect any agonist activity of the compounds. Then the cells were stimulated by an EC80 L-AP4 concentration for an additional 110 s in order to measure inhibiting activities of the compounds of the invention. EC80 L-AP4 concentration is the concentration giving 80% of the maximal glutamate response.
The concentration-response curves of L-AP4 or representative compounds of the present invention were generated using the Prism GraphPad software (Graph Pad Inc, San Diego, USA). The curves were fitted to a four-parameter logistic equation:
(Y=Bottom+(Top−Bottom)/(1+10^((Log IC50−X)*Hill Slope)
allowing determination of IC50 values.
The Table 3 below represents the mean IC50 obtained from at least three independent experiments of selected molecules performed in duplicate.

T1 sequence (Q14831 35-922 isoform Q14831-2 limits assumed): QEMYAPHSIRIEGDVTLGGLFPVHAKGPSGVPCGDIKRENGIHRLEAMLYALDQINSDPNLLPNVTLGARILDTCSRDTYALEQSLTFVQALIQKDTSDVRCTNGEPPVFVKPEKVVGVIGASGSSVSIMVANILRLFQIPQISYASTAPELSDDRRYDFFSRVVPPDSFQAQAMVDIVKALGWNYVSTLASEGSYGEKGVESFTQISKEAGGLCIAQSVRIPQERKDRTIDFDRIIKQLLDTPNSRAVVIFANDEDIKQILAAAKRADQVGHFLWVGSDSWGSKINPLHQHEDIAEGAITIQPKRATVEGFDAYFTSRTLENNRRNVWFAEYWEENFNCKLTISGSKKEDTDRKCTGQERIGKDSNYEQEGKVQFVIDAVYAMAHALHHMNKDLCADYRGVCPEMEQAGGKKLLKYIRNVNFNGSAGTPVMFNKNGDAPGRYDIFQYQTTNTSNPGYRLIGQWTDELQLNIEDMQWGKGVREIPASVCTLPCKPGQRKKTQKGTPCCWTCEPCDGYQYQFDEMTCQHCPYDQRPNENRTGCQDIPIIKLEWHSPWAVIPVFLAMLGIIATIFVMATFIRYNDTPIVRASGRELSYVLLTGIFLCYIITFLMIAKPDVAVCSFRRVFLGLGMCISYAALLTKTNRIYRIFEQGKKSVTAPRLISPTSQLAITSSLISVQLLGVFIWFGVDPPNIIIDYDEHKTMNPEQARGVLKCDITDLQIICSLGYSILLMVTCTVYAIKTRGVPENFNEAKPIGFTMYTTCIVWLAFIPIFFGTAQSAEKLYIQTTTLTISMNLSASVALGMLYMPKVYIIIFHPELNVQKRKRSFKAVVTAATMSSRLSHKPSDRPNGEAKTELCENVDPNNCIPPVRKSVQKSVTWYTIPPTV

Compound	IC50 [nM]
Cc1c(-c2cccc(N3C4CCC3CC4)c2)c(C)n2c(=O)n(-c3ncccn3)ncc12 [1-131]	100 to 1000
CCn1ncc2c(C)c(-c3cccc(N4CCC4)c3)c(C)n2c1=O [1-10, 7-[3-(azetidin-1-yl)phenyl]-3-ethyl-6,8-dimethyl-pyrrolo[1,2-d][1,2,4]triazin-4-one]	100 to 1000
COc1ccc(-c2c(C)c3cnn(-c4ncccn4)c(=O)n3c2C)c(C)n1 [1-137]	100 to 1000
Cc1c(-c2ccnc(OC(F)F)c2)c(C)n2c(=O)n(-c3ncccn3)ncc12 [1-141]	1000 to 10000
Cc1c(-c2ccnc(OC(F)F)c2)cc2cnn(-c3ccccn3)c(=O)n12 [1-146]	100 to 1000
Cc1cnc(-n2ncc3c(C)c(-c4cccc(OC5CC5)c4C)c(C)n3c2=O)nc1 [1-52]	100 to 1000
COc1ccc(F)c(-c2cc3cnn(-c4ncccn4)c(=O)n3c2C)c1 [1-105]	100 to 1000
Cc1c(-c2cccc(N3CCC3)c2)c(C)n2c(=O)n(-c3ccc(NC(=O)OC(C)(C)C)cn3)ncc12 [1-31]	100 to 1000
Cc1c(-c2cccc(N3CCC3)c2)c(C)n2c(=O)n(-c3ncc(OCCN(C)C)cn3)ncc12 [1-43]	100 to 1000
Cc1cnc(-n2ncc3c(C)c(-c4cccc(OC5CC5)c4)c(C)n3c2=O)nc1 [1-50]	100 to 1000
COc1cccc(-c2c(C)c3cnn(-c4ncccn4)c(=O)n3c2C)c1F [1-133]	100 to 1000
COc1ccc(-c2c(C)c3cnn(-c4ncccn4)c(=O)n3c2C)cc1 [1-122]	100 to 1000
Cc1c(-c2cccc(N3CCC3)c2)c(C)n2c(=O)n(C3CC3)ncc12 [1-33]	100 to 1000
COc1cccc(-c2cc3cnn(-c4ncccn4)c(=O)n3c2C)c1 [1-61]	100 to 1000
Cc1c(-c2cccc(OC3CC3)c2)c(C)n2c(=O)n(-c3ncc(N)cn3)ncc12 [1-81]	100 to 1000
Cc1c(-c2cccc3c2CCN3C2CC2)cc2cnn(-c3ncccn3)c(=O)n12 [1-67]	100 to 1000
Cc1c(-c2cccc(N3CCC3)c2)c(C)n2c(=O)n(-c3ccc(Br)cn3)ncc12 [1-26]	1000 to 10000

Next, values leading:

IC50 [nM]	Compound
100 to 1000	Cc1c(OC2CC2)cccc1-c1c(C)c2cnn(-c3ccccn3)c(=O)n2c1C [1-8]
100 to 1000	COc1cccc(-c2c(C)c3cnn(-c4ncccn4)c(=O)n3c2C)n1 [1-98]
< 100	Cc1c(OC2CC2)cccc1-c1c(C)c2cnn(-c3ccc(C(C)(C)O)cn3)c(=O)n2c1C [1-59]
< 100	Cc1c(-c2cccc(OC3CC3)c2)c(C)n2c(=O)n(-c3ncccn3)ncc12 [1-29]
< 100	COc1ccc(-c2c(C)c3cnn(-c4ccccn4)c(=O)n3c2C)c(F)c1 [1-136]
< 100	Cc1c(-c2cccc3c2CCO3)cc2cnn(-c3ccccn3)c(=O)n12 [1-69]
< 100	Cc1c(-c2cccc(N3CCC3)c2)c(C)n2c(=O)n(-c3ccc(C(C)(C)O)cn3)ncc12 [1-24, 7-[3-(azetidin-1-yl)phenyl]-3-[5-(1-hydroxy-1-methyl-ethyl)-2-pyridyl]-6,8-dimethyl-pyrrolo[1,2-d][1,2,4]triazin-4-one]
< 100	Cc1c(-c2cccc(OC3CC3)c2F)cc2cnn(-c3ccccn3)c(=O)n12 [1-109]
< 100	Cc1c(OC(F)F)cccc1-c1cc2cnn(-c3ncccn3)c(=O)n2c1C [1-75]
< 100	Cc1c(-c2cccc(OC3CC3)c2)c(C)n2c(=O)n(-c3ncc(F)cn3)ncc12 [1-21]
< 100	Cc1c(-c2cccc(OC3CC3)c2)cc2cnn(-c3ncccn3)c(=O)n12 [1-88]
< 100	Cc1c(-c2cccc3c2CCN3C)cc2cnn(-c3ncccn3)c(=O)n12 [1-90]
< 100	Cc1c(-c2cccc(OC(F)F)c2)c(C)n2c(=O)n(-c3ccccn3)ncc12 [1-37]
< 100	COc1cc(-c2cc3cnn(-c4ccccn4)c(=O)n3c2C)ccc1F [1-107]
< 100	Cc1ccc(-c2c(C)c3cnn(-c4ccccn4)c(=O)n3c2C)c(C)c1 [1-1]
< 100	Cc1c(-c2cccc(OC(F)F)c2)c(C)n2c(=O)n(-c3ncc(F)cn3)ncc12 [1-17]
< 100	Cc1c(-c2cccc3c2CCN3C(C)C)cc2cnn(-c3ncccn3)c(=O)n12 [1-68]
